# Results taken from patent US20250188092A1, “RIFAMYCIN ANALOGS” (THE REGENTS OF THE UNIVERSITY OF MICHIGAN, priority 2021, published 2025).
# Where two headings read alike, the source gives them in different places.
# Assays:
# [1] = system: M. tuberculosis transformed with luxABCDE; assay: microbe, parasite or virus in culture; assay type: cell-based, Mycobacterium tuberculosis
# [2] = system: non-replicating cultures of M. tuberculosis H37Rv transformed with lux ABCDE; assay: microbe, parasite or virus in culture; assay type: cell-based, Mycobacterium tuberculosis; conditions: for MIC / MIC90: ≥90% reduction in luminescence, read-out: MIC90 LORA; for MIC90 LORA/MABA: ratio of LORA MIC90 to MABA MIC90
# [3] = Mycobacterium tuberculosis, 168 h, […], ≥99% reduction in luminescence, read-out: MBC99 Day 7 (Lux Assay) MBC
# [4] = Mycobacterium tuberculosis, H37RV
SMILES,MBC99 Day 7 (Lux Assay) MBC Rel to RMP [1],"MBC [1, 3]","MIC90 ([1]; Mycobacterium tuberculosis, 168 h, day 7 of time-kill study)","MBC ([1]; Mycobacterium tuberculosis, 168 h, day 7 of time-kill study, read-out: MBC99)",more potent than RMP in terms of day 7 MBC ([1]; day 7),MIC90 LORA Rel to RMP [2],"MIC [2, 4]",MIC90 LORA/MABA [2],"MIC90 [2, 4]","MBC ([1]; […], ≥99% reduction in luminescence, read-out: MBC99 Day 7 (Lux Assay) MBC)",MIC90 [2]
"CO[C@H]1/C=C/O[C@@]2(C)Oc3c(C)c(O)c4c(=O)c(c5oc6cc(N7CCN(CC(C)C)CC7)cc(OCc7ccc(CN8CCOCC8)cc7)c6nc-5c4c3C2=O)NC(=O)/C(C)=C\C=C\[C@H](C)[C@H](O)[C@@H](C)[C@@H](O)[C@@H](C)[C@H](OC(C)=O)[C@@H]1C [Compound 17e, (7S,9E,11S,12R,13S,14R,15R,16R,17S,18S,19E,21Z)-2,15,17-Trihydroxy-11-methoxy-3,7,12,14,16,18,22-heptamethyl-30-[4-(2-methylpropyl)piperazin-1-yl]-32-({4-[(morpholin-4-yl)methyl]phenyl}methoxy)-6,23,37-trioxo-8,27,38-trioxa-24,34-diazahexacyclo[23.11.1.1^4,7.0^5,36.0^26,35.0^28,33]octatriaconta-1(36)2,4,9,19,21,25,28,30,32,34-undecaen-13-yl acetate]",0.20,0.093 µM,0.009 µM,0.093 µM,approximately 10 fold,0.11,0.0094 µM,1.9,–,–,–
"CO[C@H]1/C=C/O[C@@]2(C)Oc3c(C)c(O)c4c(=O)c(c5oc6cc(N7CCN(C8CCN(C)CC8)CC7)cc(OCc7ccc(CN8CCOCC8)cc7)c6nc-5c4c3C2=O)NC(=O)/C(C)=C\C=C\[C@H](C)[C@H](O)[C@@H](C)[C@@H](O)[C@@H](C)[C@H](OC(C)=O)[C@@H]1C [Compound 17h, (7S,9E,11S,12R,13S,14R,15R,16R,17S,18S,19E,21Z)-2,15,17-trihydroxy-11-methoxy-3,7,12,14,16,18,22-heptamethyl-30-[4-(1-methylpiperidin-4-yl)piperazin-1-yl]-32-{[4-(morpholin-4-ylmethyl)phenyl]methoxy}-6,23,37-trioxo-8,27,38-trioxa-24,34-diazahexacyclo-[23.11.1.1^4,7.0^5,36.0^26,35.0^28,33]octatriaconta-1,3,5(36)9,19,21,25,28,30,32,34-undecaen-13-yl acetate]",–,> 0.1 µM,–,–,–,12,–,9.0,0.318 µM,–,–
"CO[C@H]1/C=C/O[C@@]2(C)Oc3c(C)c(O)c4c(=O)c(c5oc6cc(N7CCOC(CN(C)C)C7)cc(OCc7ccc(CN8CCOCC8)cc7)c6nc-5c4c3C2=O)NC(=O)/C(C)=C\C=C\[C@H](C)[C@H](O)[C@@H](C)[C@@H](O)[C@@H](C)[C@H](OC(C)=O)[C@@H]1C (stereo partly drawn) [Compound 17o, (7S,9E,11S,12R,13S,14R,15R,16R,17S,18S,19E,21Z)-30-{2-[(dimethylamino)methyl]morpholin-4-yl}-2,15,17-trihydroxy-11-methoxy-3,7,12,14,16,18,22-heptamethyl-32-{[4-(morpholin-4-ylmethyl)phenyl]methoxy}-6,23,37-trioxo-8,27,38-trioxa-24,34-diazahexacyclo[23.11.1.1^4,7.0^5,36.0^26,35.0^28,33]octatriaconta-1,3,5(36)9,19,21,25,28,30,32,34-undecaen-13-yl acetate]",0.28,0.128 µM,–,–,–,2.1,–,19,0.106 µM,–,–
CO[C@H]1/C=C/O[C@@]2(C)Oc3c(C)c(O)c4c(=O)c(c5oc6cc(N7CCC(C(=O)O)CC7)cc(OCc7ccc(CN8CCOCC8)cc7)c6nc-5c4c3C2=O)NC(=O)/C(C)=C\C=C\[C@H](C)[C@H](O)[C@@H](C)[C@@H](O)[C@@H](C)[C@H](OC(C)=O)[C@@H]1C [Compound 17k],–,> 0.1 µM,–,–,–,–,> 0.02 µM,–,–,–,–
"COC(=O)N1CCN(c2cc(C)c3nc4c5c6c7c(C)c(O)c5c(=O)c(c-4oc3c2)NC(=O)/C(C)=C\C=C\[C@H](C)[C@H](O)[C@@H](C)[C@@H](O)[C@@H](C)[C@H](OC(C)=O)[C@H](C)[C@@H](OC)/C=C/O[C@@](C)(O7)C6=O)CC1 [Compound 26g, Methyl 4-[(7S,9E,11S,12R,13S,14R,15R,16R,17S,18S,19E,21Z)-13-(acetyloxy)-2,15,17-trihydroxy-11-methoxy-3,7,12,14,16,18,22,32-octamethyl-6,23,37-trioxo-8,27,38-trioxa-24,34-diazahexacyclo[23.11.1.1^4,7.0^5,36.0^26,35.0^28,33]octatriaconta-1(36)2,4,9,19,21,25,28,30,32,34-undecaen-30-yl]piperazine-1-carboxylate]",0.09,0.043 µM,–,–,–,0.05,–,1.9,0.0096 µM,–,–
"CO[C@H]1/C=C/O[C@@]2(C)Oc3c(C)c(O)c4c(=O)c(c5oc6cc(N7CCN(C(=O)C(C)(C)C)CC7)cc(C)c6nc-5c4c3C2=O)NC(=O)/C(C)=C\C=C\[C@H](C)[C@H](O)[C@@H](C)[C@@H](O)[C@@H](C)[C@H](OC(C)=O)[C@@H]1C [Compound 26f, (7S,9E,11S,12R,13S,14R,15R,16R,17S,18S,19E,21Z)-30-[4-(2,2-Dimethylpropanoyl)piperazin-1-yl]-2,15,17-trihydroxy-11-methoxy-3,7,12,14,16,18,22,32-octamethyl-6,23,37-trioxo-8,27,38-trioxa-24,34-diazahexacyclo[23.11.1.1^4,7.0^5,36.0^26,35.0^28,33]octatriaconta-1(36)2,4,9,19,21,25,28,30,32,34-undecaen-13-yl acetate]",0.09,0.043 µM,–,–,–,0.05,–,2.1,0.0095 µM,–,–
"CCOC(=O)N1CCN(c2cc(C)c3nc4c5c6c7c(C)c(O)c5c(=O)c(c-4oc3c2)NC(=O)/C(C)=C\C=C\[C@H](C)[C@H](O)[C@@H](C)[C@@H](O)[C@@H](C)[C@H](OC(C)=O)[C@H](C)[C@@H](OC)/C=C/O[C@@](C)(O7)C6=O)CC1 [Compound 26h, Ethyl 4-[(7S,9E,11S,12R,13S,14R,15R,16R,17S,18S,19E,21Z)-13-(acetyloxy)-2,15,17-trihydroxy-11-methoxy-3,7,12,14,16,18,22,32-octamethyl-6,23,37-trioxo-8,27,38-trioxa-24,34-diazahexacyclo[23.11.1.1^4,7.0^5,36.0^26,35.0^28,33]octatriaconta-1(36)2,4,9,19,21,25,28,30,32,34-undecaen-30-yl]piperazine-1-carboxylate]",0.06,0.028 µM,–,–,–,0.05,–,1.9,0.0094 µM,–,–
"CO[C@H]1/C=C/O[C@@]2(C)Oc3c(C)c(O)c4c(=O)c(c5oc6cc(N7CCCC(C(=O)Nc8ccc(Cl)cc8)C7)cc(C)c6nc-5c4c3C2=O)NC(=O)/C(C)=C\C=C\[C@H](C)[C@H](O)[C@@H](C)[C@@H](O)[C@@H](C)[C@H](OC(C)=O)[C@@H]1C (stereo partly drawn) [Compound 28, (7S,9E,11S,12R,13S,14R,15R,16R,17S,1S,19E,21Z)-30-{3-[(4-Chlorophenyl)carbamoyl]piperidin-1-yl}-2,15,17-trihydroxy-11-methoxy-3,7,12,14,16,18,22,32-octamethyl-6,23,37-trioxo-8,27,38-trioxa-24,34-diazahexacyclo[23.11.1.1^4,7.0^5,36.0^26,35.0^28,33]octatriaconta-1(36)2,4,9,19,21,25,28,30,32,34-undecaen-13-yl acetate]",0.05,0.025 µM,–,–,–,0.04,–,2.1,0.0092 µM,–,–
"CO[C@H]1/C=C/O[C@@]2(C)Oc3c(C)c(O)c4c(=O)c(c5oc6cc(N7CCN(C(=O)c8ccc(-c9ccc(C(N)=O)cc9)cc8)CC7)cc(OCc7ccc(CN8CCOCC8)cc7)c6nc-5c4c3C2=O)NC(=O)/C(C)=C\C=C\[C@H](C)[C@H](O)[C@@H](C)[C@@H](O)[C@@H](C)[C@H](OC(C)=O)[C@@H]1C [Compound 17t, (7S,9E,11S,12R,13S,14R,15R,16R,17S,18S,19E,21Z)-30-(4-{[4-(4-carbamoylphenyl)-phenyl]carbonyl}piperazin-1-yl)-2,15,17-trihydroxy-11-methoxy-3,7,12,14,16,18,22-heptamethyl-32-{[4-(morpholin-4-ylmethyl)phenyl]methoxy}-6,23,37-trioxo-8,27,38-trioxa-24,34-diazahexacyclo[23.11.1.1^4,7.0^5,36.0^26,35.0^28,33]octatriaconta-1,3,5(36)9,19,21,25,28,30,32,34-undecaen-13-yl acetate]",0.12,–,–,–,–,1.2,–,1.8,–,0.086 µM,0.059 µM
"CO[C@H]1/C=C/O[C@@]2(C)Oc3c(C)c(O)c4c(=O)c(c5oc6cc(N7CCN(CC(C)C)CC7)cc(O)c6nc-5c4c3C2=O)NC(=O)/C(C)=C\C=C\[C@H](C)[C@H](O)[C@@H](C)[C@@H](O)[C@@H](C)[C@H](OC(C)=O)[C@@H]1C [RLZ, rifalazil, reference compound]",0.07,0.03 µM,–,–,–,0.01,–,2.0,0.0022 µM,–,–
"CO[C@H]1/C=C/O[C@@]2(C)Oc3c(C)c(O)c4c(=O)c(c5oc6cc(N7CCN(C(=O)c8cccc(-c9ccccn9)c8)CC7)cc(C)c6nc-5c4c3C2=O)NC(=O)/C(C)=C\C=C\[C@H](C)[C@H](O)[C@@H](C)[C@@H](O)[C@@H](C)[C@H](OC(C)=O)[C@@H]1C [Compound 29b, (7S,9E,11S,12R,13S,14R,15R,16R,17S,18S,19E,21Z)-2,15,17-Trihydroxy-11-methoxy-3,7,12,14,16,18,22,32-octamethyl-6,23,37-trioxo-30-(4-[3-(pyridin-2-yl)benzoyl]piperazin-1-yl)-8,27,38-trioxa-24,34-diazahexacyclo-[23.11.1.1^4,7.0^5,36.0^26,35.0^28,33]octatriaconta-1(36)2,4,9,19,21,25,28,30,32,34-undecaen-13-yl acetate]",0.11,0.05 µM,–,–,–,0.03,–,0.7,0.006 µM,–,–
